Experimental data reported in PMC12514971 (Protein science : a publication of the Protein Society, 2025).

Molecular target: T1, ADAR1p150 (Zα domain) (Homo sapiens, UniProt P55265)
T1 sequence (P55265 133-199 limits assumed): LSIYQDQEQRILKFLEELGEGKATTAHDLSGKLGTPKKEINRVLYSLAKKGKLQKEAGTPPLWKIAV
Assay: MST titration
Assay type: binding

- Kd: > 774 µM
Compound: O=C(O)c1cc(=O)c2c(OCC(O)COc3cccc4oc(C(=O)O)cc(=O)c34)cccc2o1 [cromolyn]
